Patent publication US20240271104A1, “COLONIZATION OF SURFACES WITH BIOLOGICAL CELLS” (Eberhard Karls Universität Tübingen Medizinische Fakultät, priority 2021, published 2024)

Tests used:
Format in all cases: cell-based, human
[1] = tested on: HUVECs; test: Metabolic labeling of HUVECs with azide groups, detection with DBCO-Sulfo-Cy3 by flow cytometry; details: 50 μM Ac4ManNAz 48 h, then 5 μM DBCO-Sulfo-Cy3 1 h
Procedure: To functionalize the cell surface of HUVECs with azide groups, 2×10^5 HUVECs per well of a 6-well plate were seeded and treated with or without 50 μM N-azidoacetylmannosamine-tetraacylated (Ac4ManNAz, Sigma Aldrich) in 2 ml medium for 48 h at 37° C. with 5% CO2. To detect the formed azido groups, the cells were washed with DPBS without Ca^2+/Mg^2+ and incubated with 5 μM DBCO-Sulfo-Cy3 (Jena Bioscience, Germany) in DPBS with Ca^2+/Mg^2+ for 1 h at 37° C. and 5% CO2. Cells were washed three times with 10 ml DPBS, detached with trypsin/EDTA (0.04%/0.03%) and centrifuged at 300×g for 5 min. The cell pellet was resuspended in 0.5 ml DPBS, and Cy3 labeling of 10,000 cells was analyzed by flow cytometry (FACS SCAN, BD, Heidelberg, Germany). In addition to the flow cytometric analyses, cells were stained for 30 minutes with ActinGreen™ 488 ReadyP-robes® reagent (Invitrogen) for the cytoskeleton and for 5 minutes with 0.2 μg/ml DAPI (Sigma Aldrich) to visualize the nuclei.

[2] = tested on: HUVECs; test: PrestoBlue cell viability assay after metabolic labeling; details: 50 μM Ac4ManNAz 48 h
Procedure: The influence of metabolic labeling on the viability of HUVECs was investigated 48 hours after labeling with 50 µM Ac4ManNAz using the PrestoBlue assay (Invitrogen, Carlsbad, USA). For this purpose, 500 μL of 1× Presto Blue cell viability reagent was added to each well of a 6-well plate and incubated for 1.5 h at 37° C. The fluorescence intensity of 100 μL supernatant was measured in triplicate at an excitation wavelength of 530 nm and an emission wavelength of 600 nm using a multimode microplate reader (Mithras LB 940, Berthold Technologies, Bad Wildbad, Germany).

[3] = tested on: endothelial layer on HFMs; test: Reactivity of the endothelial layer on HFMs to an inflammatory stimulus (qRT-PCR of adhesion molecules); details: 50 ng/mL TNF-α, 4 hours, mRNA normalized to GAPDH
Procedure: Endothelialized HFMs were incubated for 4 hours without or with 50 ng/mL tumor necrosis factor α (TNF-α, Sigma-Aldrich) in EGM™-2 endothelial cell growth medium without hydrocortisone. After incubation, HFMs were washed twice with DPBS and total RNA was isolated. Expression of the activation markers, endothelial leukocyte adhesion molecule 1 (E-selectin), vascular cell adhesion molecule 1 (VCAM-1) and intercellular adhesion molecule 1 (ICAM-1), was detected by qRT-PCR.
After 40 cycles, melting was performed.

| Molecule | Cy3-positive cells (N3 groups on the cell surface) [1] | effect on viability of HUVECs [2] | E-selectin expression compared to non-stimulated endothelial layer [3] [fold] | ICAM-1 expression compared to non-stimulated endothelial layer [3] [fold] | VCAM-1 expression compared to non-stimulated endothelial layer [3] [fold] |
| --- | --- | --- | --- | --- | --- |
| CC(=O)OC[C@H]1OC(OC(C)=O)[C@@H](NC(=O)CN=[N+]=[N-])[C@@H](OC(C)=O)[C@@H]1OC(C)=O (some centres unmarked) [Ac4ManNAz, N-azidoacetylmannosamine-tetraacylated] | about 98% | no effect |  |  |  |
| tumor necrosis factor α [TNF-α] |  |  | 199 | 162 | 328 |
